Experimental data from ChEMBL document CHEMBL4339242, “Pyranoflavanones and Pyranochalcones from the Fruits of Amomum tsao-ko” (J Nat Prod, 2019).

What was measured:
[1] = tested on: RAW264.7; experiment: Inhibition of lipopolysaccharide-induced nitric oxide production in mouse RAW264.7 cells by Griess reagent based assay; type: functional, cell-based
[2] = tested on: RAW264.7; experiment: Toxicity in lipopolysaccharide-induced mouse RAW264.7 cells by MTT-based colorimetric assay; type: cell-based

| Structure (SMILES) | IC50 [1] [µM] | Activity [2] |
| --- | --- | --- |
| N=C(N)NN [PIMAGEDINE] | 21.7 |  |
| COc1cc2c(c(O)c1C(=O)/C=C/c1ccc(O)cc1)C=CC(C)(CC/C=C(\C)CCC=C(C)C)O2 (stereo unspecified) | 30.6 | Non-Toxic |
| COc1cc2c(c3c1C(=O)C[C@@H](c1ccc(O)cc1)O3)C=CC(C)(CCC=C(C)C)O2 (stereo partly specified) | 14 | Non-Toxic |
| COc1cc2c(c3c1C(=O)C[C@H](c1ccc(O)cc1)O3)C=CC(C)(CCC=C(C)C)O2 (stereo partly specified) | 16.2 | Non-Toxic |
| COc1cc2c(c3c1C(=O)C[C@@H](c1ccccc1)O3)C=CC(C)(CC/C=C(\C)CCC=C(C)C)O2 (stereo partly specified) | 28.7 | Non-Toxic |

More lines, in order of falling IC50 [1], values ahead:

| IC50 [1] [µM] | Structure (SMILES) | Activity [2] |
| --- | --- | --- |
| 41.5 | COc1cc2c(c3c1C(=O)C[C@H](c1ccc(O)cc1)O3)C=CC(C)(CC/C=C(\C)CCC=C(C)C)O2 (stereo partly specified) | Non-Toxic |
| 39.2 | COc1cc2c(c3c1C(=O)C[C@@H](c1ccc(O)cc1)O3)C=CC(C)(CC/C=C(\C)CCC=C(C)C)O2 (stereo partly specified) | Non-Toxic |
| 26.1 | COc1cc2c(c3c1C(=O)C[C@H](c1ccccc1)O3)C=CC(C)(CC/C=C(\C)CCC=C(C)C)O2 (stereo partly specified) | Non-Toxic |
| 13.5 | COc1cc2c(c3c1C(=O)C[C@@H](c1ccccc1)O3)C=CC(C)(CCC=C(C)C)O2 (stereo partly specified) | Non-Toxic |
| 13.5 | COc1cc2c(c(O)c1C(=O)/C=C/c1ccccc1)C=CC(C)(CC/C=C(\C)CCC=C(C)C)O2 (stereo unspecified) | Non-Toxic |
| 10.6 | COc1cc2c(c3c1C(=O)C[C@H](c1ccccc1)O3)C=CC(C)(CCC=C(C)C)O2 (stereo partly specified) | Non-Toxic |
